One compound from patent US20080032952A1, “Combination Therapies Employing Nicotinic Acid Derivatives or Fibric Acid Derivatives” (priority 2004, published 2008) can be followed below.

This test concerns patients who underwent percutaneous coronary intervention (PCI). The format is in vivo. The protocol:
Data collection and statistical analyses—Patients who received ≧1 dose of the study drug and underwent PCI were analyzed for all primary and secondary efficacy and safety end points. […] Statistical tests were 2-sided with an a level of 0.05 and employed the intent-to-treat principle. The Wilcoxon rank-sum test was used. Due to small sample sizes, categorical variables were compared using the Fisher's exact test with the exception of the ST-segment monitoring data, which utilized the Pearson's chi-square test. Statistical analyses were performed using SAS version 8.2 (SAS Institute, Cary, N.C.).

Turning to `Cc1ncc(COP(=O)(O)O)c(C=O)c1O` [P5P, pyridoxal 5′-phosphate], where the note is “10 mg/kg oral ≧4 hours before PCI, then 5 mg/kg twice daily, CK-MB over 24 hours, p=0.038 vs placebo”, the “median periprocedural CK-MB area under the curve (periprocedural infarct size)” value came out at 18.6 ng/mL. Also, the “rate of post-PCI ischemia” value (continuous ST monitoring within 24 hours after PCI, p=0.78 vs placebo) was found to be 14.7%.
